This is an account of results in US20220204476A1, “RNA VIRUS INHIBITOR COMPOUNDS AND USES THEREOF” (The Governors of the University of Alberta, priority 2020, published 2022).

Where only a bound is given, the exact number is not on record here.

The subject of one series is SARS-CoV-2. In words: SARS-CoV-2 in vitro plaque reduction assay in Vero E6 cells. It is filed as cell-based. Particulars: Severe acute respiratory syndrome coronavirus 2, Vero C1008, MOI 0.0001 pfu/cell, plaques counted after 48 h, >5 μM = did not reduce plaque numbers by half at 10 μM, read-out: SARS-CoV-2 Antiviral EC50. In general terms: Plaque reduction counts the foci of infection that form in a cell layer.

A further series deals with SARS-CoV-2 3CLP (Severe acute respiratory syndrome coronavirus 2, UniProt P0DTD1). The series can be described thus: SARS-CoV-2 3CLP inhibition, FRET-based cleavage assay. The series is classed as biochemical. Particulars: 80 nM SARS-CoV-2 3CLP, 100 μM substrate, 37° C., 10 min incubation, pH 7.8; read-out: 3CL Protease IC50.
Series [1] can be described thus: Cytotoxicity, CellTiter-Glo luminescent cell viability assay. Particulars: human (A549) and green monkey (Vero E6). Background: ATP-based viability assays read luminescence as a measure of living cells.

In the case of `COc1cccc2[nH]c(C(=O)N[C@@H](CC(C)C)C(=O)N[C@@H](C[C@@H]3CCCNC3=O)C(=O)COC(=O)C(C)(C)C(F)(F)F)cc12` [Compound 13, (3S)-3-{[N-(4-methoxy-1H-indole-2-carbonyl)-L-leucyl]amino}-2-oxo-4-[(3S)-2-oxopiperidin-3-yl]butyl 3,3,3-trifluoro-2,2-dimethylpropanoate], the concentration giving a half-maximal response (EC50) with SARS-CoV-2 is above 5000 nM. On SARS-CoV-2 3CLP, the IC50 is 20 nM. Besides, the half-maximal cytotoxic concentration (CC50) at 24 h in series [1] was above 200000 nM.
For `COc1cccc2[nH]c(C(=O)N[C@@H](CC(C)C)C(=O)N[C@@H](C[C@@H]3CCCNC3=O)C(=O)COC(=O)c3c(C(F)(F)F)cccc3C(F)(F)F)cc12` [Compound 6, (3S)-3-{[N-(4-methoxy-1H-indole-2-carbonyl)-L-leucyl]amino}-2-oxo-4-[(3S)-2-oxopiperidin-3-yl]butyl 2,6-bis(trifluoromethyl)benzoate] the same measures were 210 nM, 1 nM and above 200000 nM.
On the same counts, the results for `CC(C)C[C@H](NC(=O)c1cc2c3c(ccc2[nH]1)CCO3)C(=O)N[C@H](C#N)C[C@@H]1CCCNC1=O` [Compound 71, N-[(2S)-1-({(1S)-1-cyano-2-[(3S)-2-oxopiperidin-3-yl]ethyl}amino)-4-methyl-1-oxopentan-2-yl]-3,6-dihydro-2H-furo[2,3-e]indole-7-carboxamide] are above 5000 nM, 49 nM and above 200000 nM.
For `COc1cccc2[nH]c(C(=O)N[C@@H](CC(C)C)C(=O)N[C@H](C#N)C[C@@H]3CCCNC3=O)cc12` [Compound 34, N-[(2S)-1-({(1S)-1-cyano-2-[(3S)-2-oxopiperidin-3-yl]ethyl}amino)-4-methyl-1-oxopentan-2-yl]-4-methoxy-1H-indole-2-carboxamide] the same measures were 2700 nM, 13 nM and above 200000 nM.
Turning to `CC(C)C[C@H](NC(=O)c1cc2c(OC(F)(F)F)cccc2[nH]1)C(=O)N[C@H](C#N)C[C@@H]1CCCNC1=O` [Compound 40, N-[(2S)-1-({(1S)-1-cyano-2-[(3S)-2-oxopiperidin-3-yl]ethyl}amino)-4-methyl-1-oxopentan-2-yl]-4-(trifluoromethoxy)-1H-indole-2-carboxamide], the EC50 in the series on SARS-CoV-2 turned out to be 2600 nM. Moreover, the half-inhibitory concentration (IC50) on SARS-CoV-2 3CLP was 14 nM. This molecule also displayed a CC50 at 24 h in series [1] above 50000 nM.
On the same counts, the results for `CCOc1cccc2[nH]c(C(=O)N[C@@H](CC(C)C)C(=O)N[C@H](C#N)C[C@@H]3CCCNC3=O)cc12` [Compound 69, N-[(2S)-1-({(1S)-1-cyano-2-[(3S)-2-oxopiperidin-3-yl]ethyl}amino)-4-methyl-1-oxopentan-2-yl]-4-ethoxy-1H-indole-2-carboxamide] are 4800 nM, 24 nM and above 200000 nM.
Turning to `Cc1cc(C)c(C(=O)OCC(=O)[C@H](C[C@@H]2CCCNC2=O)NC(=O)[C@H](CC(C)C)NC(=O)[C@H]2CCCO2)c(C)n1` [Compound 73, (3S)-2-oxo-3-({N-[(2R)-oxolane-2-carbonyl]-L-leucyl}amino)-4-[(3S)-2-oxopiperidin-3-yl]butyl 2,4,6-trimethylpyridine-3-carboxylate], the concentration giving a half-maximal response (EC50) in the series with SARS-CoV-2 was below 1000 nM. For the same molecule, on SARS-CoV-2 3CLP, the 50% inhibitory concentration (IC50) turned out to be 190 nM. Moreover, the CC50 at 24 h in series [1] is above 200000 nM.
On to `CC(C)C[C@H](NC(=O)[C@H]1CCCO1)C(=O)N[C@@H](C[C@@H]1CCNC1=O)C(=O)COC(=O)c1c(C(F)(F)F)cccc1C(F)(F)F` [Compound 74, (3S)-2-oxo-3-({N-[(2R)-oxolane-2-carbonyl]-L-leucyl}amino)-4-[(3S)-2-oxopyrrolidin-3-yl]butyl 2,6-bis(trifluoromethyl)benzoate], for which, in the series with SARS-CoV-2, the EC50 is below 1000 nM. Also, the IC50 on SARS-CoV-2 3CLP was 110 nM. Besides, the 50% cytotoxic concentration (CC50) at 24 h in series [1] was above 200000 nM.
Consider `COc1cccc2[nH]c(C(=O)N[C@@H](CC(C)C)C(=O)N[C@@H](C[C@@H]3CCCNC3=O)C(=O)COC(=O)c3c(C(F)(F)F)cc(C)nc3C)cc12` [Compound 18, (3S)-3-{[N-(4-methoxy-1H-indole-2-carbonyl)-L-leucyl]amino}-2-oxo-4-[(3S)-2-oxopiperidin-3-yl]butyl 2,6-dimethyl-4-(trifluoromethyl)pyridine-3-carboxylate], for which the half-maximal effective concentration (EC50) with SARS-CoV-2 is 460 nM. For the same molecule, the IC50 on SARS-CoV-2 3CLP came out at 14 nM. This molecule also returned a half-maximal cytotoxic concentration (CC50) at 24 h in series [1] above 200000 nM.

What is called EC50 is the concentration that produces a half-maximal response. Usually IC50 stands for the midpoint of a concentration-inhibition curve. As a reminder, the CC50 is the concentration giving 50% cytotoxicity.
